Test results from patent US12679878B2, “CRF2 receptor agonists and their use in therapy” (SANOFI, priority 2020, dated 2026).
≈ marks a conversion by molar mass, not a printed value. Like-named read-outs stand apart in the source and are kept apart here. Blank lines part the entries; values can stand above or below the molecule they belong to. Starred links: 1 amine or outer side, 2 acyl side, 3 side chain; linkers in the order of their positions; H or OH if unused. Non-standard residues stand in square brackets, D forms with d. Residues, ends and D or L forms follow the SMILES beside them. Groups on a side chain read outwards from the residue. *: point of attachment. C16 diacid = O=C(O)CCCCCCCCCCCCCCC(=O)*; γGlu = O=C(O)[C@H](CCC(=O)[*:2])N[*:1]; Palmitoyl = CCCCCCCCCCCCCCCC(=O)*; Aib = CC(C)(N)C(=O)O

Columns and labels:
CRF2R = biological target: T1, CRF2R (Homo sapiens, UniProt Q13324); test: EC50 [nM] CRF2R
T1 construct: expressed in transfected cells; host or cells: TeloHEAC
Excerpt: Table printed on a drawing sheet, Fig. 3
Head of the field: EC50 [nM] CRF2R
The patent's description of the figure: FIG. 3: Representative sequences from peptides according to the invention with an optimized stability profile, wherein K[sema] stands for K[gGlu-C(O)(CH2)14CH3]
First copying reader's note: Second half (positions 13-38, C-term and activity) of the first table; the rows follow the same order, so the four rows of Peptide Seq. 1 are Patent Sequence N° 130, 171, 172 and 173.
Where the first naming reader finds the target: head: EC50 [nM] CRF2R

[1] = In vitro plasma stability, human plasma (Example 19.11); type: in vitro ADME; parameters: dose or concentration left out as unconfirmed; details: 37° C.
Method: (§1) In vitro plasma metabolic stability was studied in male Sprague Dawley rats and human. Test compound were incubated […] for 2 hours at 37° C. At each time point (0, 0.25, 1 and 2 h), samples were prepared for analysis by means of a single step protein precipitation technique by adding 150 μL of ethanol, 0.1% formic acid to 50 μL aliquots of plasma. Samples were mixed by vortex for homogeneity and then subjected to centrifugation at 14000 rpm for 15 min. The supernatant (100 μL) was collected, diluted with 100 μL of water, 0.1% formic acid and analyzed by LC-HRMS (TripleTOF 6600+, AB Sciex). For each test compound, the area ratios at each time point were compared to the 0 h area ratio and converted to a percentage remaining.

[2] = In vitro plasma stability, rat plasma (Example 19.11); type: in vitro ADME, Sprague Dawley rats; parameters: remaining at 2 h: dose or concentration left out as unconfirmed; details: male, Sprague Dawley, rat, plasma, 37° C.
Method: as §1

CRF1R receptor = biological target: T2, CRF1R receptor (Homo sapiens, UniProt P34998); test: cAMP activity at anti-target CRF1R, CHO-K1 cell line clone 2 (Example 19.10); type: cell-based
T2 construct: host or cells: CHO-K1 clone 2
T2 sequence (P34998 24-415): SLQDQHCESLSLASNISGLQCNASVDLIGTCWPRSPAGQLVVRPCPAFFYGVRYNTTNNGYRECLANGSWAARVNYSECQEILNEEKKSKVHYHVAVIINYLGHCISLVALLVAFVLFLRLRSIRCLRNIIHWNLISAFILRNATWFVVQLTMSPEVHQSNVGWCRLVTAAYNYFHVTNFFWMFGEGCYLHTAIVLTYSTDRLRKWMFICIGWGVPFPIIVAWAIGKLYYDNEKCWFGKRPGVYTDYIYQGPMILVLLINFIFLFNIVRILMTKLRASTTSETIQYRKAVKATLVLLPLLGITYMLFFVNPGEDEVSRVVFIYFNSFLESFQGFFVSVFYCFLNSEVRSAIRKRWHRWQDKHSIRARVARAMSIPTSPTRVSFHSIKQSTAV
Method in brief: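 The cAMP read-out used the same protocol as the previous assay, except that Sauvagine at 100 nM set the 100% activation control. Cells were CHO-K1 clone 2 overexpressing CRF1R, cultured in F12 medium with 10% FBS and G418 and stored frozen until use.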

[3] = Buffer solubility by LC-UV, pH 7.4 phosphate and pH 4.5 acetate (Example 19.11); type: physicochemical; details: target 10 mg/mL
Method: As for example 15 above, also the chemical stability of representative examples of these FA modified peptides has been assessed, using LC-UV instead of light scattering. Solubility and chemical stability were studied in 100 mM phosphate buffer (pH 7.4) and 100 mM acetate buffer (pH 4.5). Test compound powders were dissolved in both buffers at a target concentration of 10 mg/mL and incubated for 1 hour at room temperature. After centrifugation at 2500 rcf for 15 minutes, […] of supernatant was diluted with […] of the incubation buffer and analyzed by LC-UV (Acquity UPLC-DAD, Waters). Solubility was calculated by comparing the peak area of the test compound in the buffer sample with the peak area of the same compound dissolved at 0.5 mg/ml in water:acetonitrile 1:1, 0.1% formic acid.

human CRF2α receptor = biological target: T3, human CRF2α receptor (Homo sapiens, UniProt Q13324); test: cAMP agonism at human CRF2α receptor in TeloHEAC cells, FA modified peptides (Example 19.9); type: cell-based; details: 0% HSA, relative to urocortin 2
T3 construct: expressed in transfected cells; host or cells: TeloHEAC
T3 sequence (Q13324 1-411): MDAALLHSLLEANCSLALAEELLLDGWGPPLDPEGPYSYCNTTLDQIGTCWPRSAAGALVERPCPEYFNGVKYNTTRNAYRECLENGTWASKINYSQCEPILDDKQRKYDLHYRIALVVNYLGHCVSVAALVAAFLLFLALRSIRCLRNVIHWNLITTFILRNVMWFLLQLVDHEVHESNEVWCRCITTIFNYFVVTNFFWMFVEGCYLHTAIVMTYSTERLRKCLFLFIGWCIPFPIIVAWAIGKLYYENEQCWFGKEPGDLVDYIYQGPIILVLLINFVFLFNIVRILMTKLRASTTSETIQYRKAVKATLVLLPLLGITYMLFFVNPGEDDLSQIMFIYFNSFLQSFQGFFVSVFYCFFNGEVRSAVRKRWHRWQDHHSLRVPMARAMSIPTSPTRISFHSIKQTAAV
Method in brief: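 Efficacy and EC50 are referenced to 100 nM urocortin 2 as 100%, with cAMP measured as the 665/620 nm HTRF ratio after 1 h at room temperature. Compounds (0.5 mM DMSO stock, 16 twofold dilutions) acted 30 min at 37 °C on CRF2α-expressing TeloHEAC cells, buffer containing IBMX and 0% or 0.2% HSA.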

EC50 (CRF2R): 0.06 nM
Structure (SMILES): CCCCCCCCCCCCCCCC(=O)N[C@@H](CCC(=O)NCCCC[C@H](NC(=O)[C@H](CC(C)C)NC(=O)CNC(=O)[C@@H](NC(=O)[C@@H]1CCCN1C(=O)[C@@H](NC(=O)[C@H](CC(=O)O)NC(=O)[C@H](CC(C)C)NC(=O)[C@H](CO)NC(=O)[C@H](CC(C)C)NC(=O)[C@@H](NC(=O)[C@@H](N)[C@@H](C)CC)C(C)C)C(C)C)[C@@H](C)CC)C(=O)N[C@@H](CCC(N)=O)C(=O)N[C@@H](CCCCN)C(=O)N[C@@H](CC(C)C)C(=O)N[C@@H](CC(C)C)C(=O)N[C@@H](CCCCN)C(=O)N[C@@H](CCC(N)=O)C(=O)N[C@@H](CCC(N)=O)C(=O)N[C@@H](CCCNC(=N)N)C(=O)N[C@@H](CCC(N)=O)C(=O)N[C@@H](CCCNC(=N)N)C(=O)N[C@@H](CCCCN)C(=O)N[C@@H](CCC(=O)O)C(=O)N[C@@H](CCCNC(=N)N)C(=O)N[C@@H](CCC(N)=O)C(=O)N[C@@H](CCC(N)=O)C(=O)N[C@@H](C)C(=O)N[C@@H](CCC(=O)O)C(=O)N[C@@H](CCCCN)C(=O)N[C@@H](CC(N)=O)C(=O)N[C@@H](C)C(=O)N[C@@H](CCCNC(=N)N)C(=O)N[C@H](C(=O)N[C@@H](CC(C)C)C(=O)N[C@@H](C)C(=O)N[C@@H](CCCNC(=N)N)C(=O)N[C@H](C(N)=O)C(C)C)[C@@H](C)CC)C(=O)O [SEQ ID NO: 6] (H-IVLSLDVPIGLK([γGlu-Palmitoyl])QKLLKQQRQRKERQQAEKNARILARV-NH2)

EC50 (CRF2R): 0.18 nM
Structure (SMILES): CCCCCCCCCCCCCCCC(=O)N[C@@H](CCC(=O)NCCCC[C@H](NC(=O)[C@@H](NC(=O)[C@H](CCCCN)NC(=O)[C@@H](NC(=O)[C@@H]1CCCN1C(=O)[C@@H](NC(=O)[C@H](CC(=O)O)NC(=O)[C@H](CC(C)C)NC(=O)[C@H](CO)NC(=O)[C@H](CC(C)C)NC(=O)[C@@H](NC(=O)[C@@H](N)Cc1ccccc1)[C@@H](C)O)C(C)C)[C@@H](C)O)[C@@H](C)CC)C(=O)N[C@@H](CCC(N)=O)C(=O)N[C@@H](CCCCN)C(=O)N[C@@H](CC(C)C)C(=O)N[C@@H](CC(C)C)C(=O)N[C@@H](CCCCN)C(=O)N[C@@H](CCC(N)=O)C(=O)N[C@@H](CCC(=O)O)C(=O)N[C@@H](CCCCN)C(=O)N[C@@H](CCC(N)=O)C(=O)N[C@@H](CCCCN)C(=O)N[C@@H](CCCCN)C(=O)N[C@@H](CCC(N)=O)C(=O)N[C@@H](CCCNC(=N)N)C(=O)N[C@@H](CCC(N)=O)C(=O)N[C@@H](CCCCN)C(=O)N[C@@H](C)C(=O)N[C@@H](CCCCN)C(=O)N[C@H](C(=O)N[C@@H](C)C(=O)N[C@@H](C)C(=O)N[C@@H](CCC(N)=O)C(=O)N[C@H](C(=O)N[C@@H](CC(C)C)C(=O)N[C@@H](C)C(=O)N[C@@H](CCC(N)=O)C(=O)N[C@H](C(N)=O)C(C)C)[C@@H](C)CC)[C@@H](C)O)C(=O)O [SEQ ID NO: 8] (H-FTLSLDVPTKIK([γGlu-Palmitoyl])QKLLKQEKQKKQRQKAKTAAQILAQV-NH2)

EC50 (CRF2R): 0.08 nM
Structure (SMILES): CCCCCCCCCCCCCCCC(=O)N[C@@H](CCC(=O)NCCCC[C@H](NC(=O)[C@@H](NC(=O)[C@H](CCCCN)NC(=O)[C@@H](NC(=O)[C@@H]1CCCN1C(=O)[C@@H](NC(=O)[C@H](CC(=O)O)NC(=O)[C@H](CC(C)C)NC(=O)[C@H](CO)NC(=O)[C@H](CC(C)C)NC(=O)[C@@H](NC(=O)[C@@H](N)Cc1ccccc1)[C@@H](C)O)C(C)C)[C@@H](C)O)[C@@H](C)CC)C(=O)N[C@@H](CCC(N)=O)C(=O)N[C@@H](CCCCN)C(=O)N[C@@H](CC(C)C)C(=O)N[C@@H](CC(C)C)C(=O)N[C@@H](CCCCN)C(=O)N[C@@H](CCC(N)=O)C(=O)N[C@@H](CCC(=O)O)C(=O)N[C@@H](CCCCN)C(=O)N[C@@H](CCC(N)=O)C(=O)N[C@@H](CCCCN)C(=O)N[C@@H](CCCCN)C(=O)N[C@@H](CCC(N)=O)C(=O)N[C@@H](CCCNC(=N)N)C(=O)N[C@@H](CCC(N)=O)C(=O)N[C@@H](CCCCN)C(=O)N[C@@H](C)C(=O)N[C@@H](CCCCN)C(=O)N[C@H](C(=O)N[C@@H](C)C(=O)N[C@@H](CCCCN)C(=O)N[C@@H](CCC(N)=O)C(=O)N[C@H](C(=O)N[C@@H](CC(C)C)C(=O)N[C@@H](CCC(=O)O)C(=O)N[C@@H](CCC(N)=O)C(=O)N[C@H](C(N)=O)C(C)C)[C@@H](C)CC)[C@@H](C)O)C(=O)O [SEQ ID NO: 9] (H-FTLSLDVPTKIK([γGlu-Palmitoyl])QKLLKQEKQKKQRQKAKTAKQILEQV-NH2)

remaining at 2 h [1]: 80% | remaining at 2 h [2]: 84% | EC50 (CRF1R receptor; 0% HSA, CRF1R CHO-K1 clone 2, read-out: EC50 [nM] 0% HSA): > 100 nM | Emax (CRF1R receptor; 100% = Sauvagine at 100 nM, CRF1R CHO-K1 clone 2): 8.77% | EC50 (CRF1R receptor; Table 20 side-to-side comparison, read-out: CRF1 EC50): > 100 nM | CRF1/CRF2 ratio (CRF1R receptor; ratio of CRF1 EC50 to CRF2 EC50): >500 | solubility at 1 h ([3]; pH 4.5, 100 mM acetate buffer): 8600 µg/mL (≈ 1770 µM) | solubility at 1 h ([3]; pH 7.4, 100 mM phosphate buffer): 100 µg/mL (≈ 20.6 µM) | EC50 (human CRF2α receptor): 0.82 nM
Structure (SMILES): CC[C@H](C)[C@H](N)C(=O)N[C@H](C(=O)N[C@@H](CC(C)C)C(=O)N[C@@H](CO)C(=O)N[C@@H](CC(C)C)C(=O)N[C@@H](CC(=O)O)C(=O)N[C@@H](C(=O)N1CCC[C@H]1C(=O)N[C@H](C(=O)NCC(=O)N[C@@H](CC(C)C)C(=O)N[C@@H](CCCCNC(=O)CC[C@H](NC(=O)CCCCCCCCCCCCCCC(=O)O)C(=O)O)C(=O)N[C@@H](CCC(N)=O)C(=O)N[C@H](C(=O)N[C@@H](CC(C)C)C(=O)N[C@@H](CC(C)C)C(=O)N[C@@H](CCCCN)C(=O)N[C@@H](CCC(N)=O)C(=O)N[C@@H](CCC(=O)O)C(=O)N[C@@H](CCCNC(=N)N)C(=O)N[C@@H](CCC(N)=O)C(=O)N[C@@H](CCCCN)C(=O)N[C@@H](CCCCN)C(=O)NC(C)(C)C(=O)N[C@@H](CCCNC(=N)N)C(=O)N[C@@H](CCC(=O)O)C(=O)N[C@@H](CCC(N)=O)C(=O)N[C@@H](C)C(=O)N[C@@H](CCC(=O)O)C(=O)N[C@H](C(=O)N[C@@H](CC(N)=O)C(=O)N[C@@H](CCCCN)C(=O)N[C@@H](CCCNC(=N)N)C(=O)N[C@H](C(=O)N[C@@H](CC(C)C)C(=O)N[C@@H](CCC(=O)O)C(=O)N[C@@H](CCCNC(=N)N)C(=O)N[C@H](C(N)=O)C(C)C)[C@@H](C)CC)[C@@H](C)O)[C@@H](C)CC)[C@@H](C)CC)C(C)C)C(C)C [compound 193] (H-IVLSLD[dV]PIGLK([γGlu-C16 diacid])QILLKQERQKK[Aib]REQAETNKRILERV-NH2)
